System: MV-4-11 cells
Assay: Gene expression microarray analysis (Affymetrix PrimeView) and GSEA
Format: cell-based, human
Set-up: RFU PODN (11730768_x_at) / Fold change /veh PODN (11730768_x_at) / RFU LINC00158 (11744669_a_at) / Fold change /veh LINC00158 (11744669_a_at) / RFU DUSP10 (11751237_a_at) / Fold change /veh DUSP10 (11751237_a_at) / RFU ID3 (11757404_x_at) / Fold change /veh ID3 (11757404_x_at) / RFU PLEKHG5 (11737974_s_at) / Fold change /veh PLEKHG5 (11737974_s_at) / RFU LRRC4B (11730491_at) / Fold change /veh LRRC4B (11730491_at) / RFU GIMAP4 (11747438_a_at) / Fold change /veh GIMAP4 (11747438_a_at) / RFU KRT8 (11758183_x_at) / Fold change /veh KRT8 (11758183_x_at) / RFU CNN1 (11734310_a_at) / Fold change /veh CNN1 (11734310_a_at) / RFU VPS37D (11726825_at) / Fold change /veh VPS37D (11726825_at) / RFU C10orf10 (11716522_x_at) / Fold change /veh C10orf10 (11716522_x_at) / RFU KIR2DL2 /// KIR2DL4 /// KIR2DL5A /// KIR2DL5B /// KIR2DS1 /// KIR2DS2 /// KIR2DS3 /// KIR2DS4 /// KIR3DL3 /// KIR3DL3 /// KIR3DS1 (11738374_at) / Fold change /veh KIR2DL2 /// KIR2DL4 /// KIR2DL5A /// KIR2DL5B /// KIR2DS1 /// KIR2DS2 /// KIR2DS3 /// KIR2DS4 /// KIR3DL3 /// KIR3DL3 /// KIR3DS1 (11738374_at) / RFU C1QL1 (11718748_at) / Fold change /veh C1QL1 (11718748_at) / RFU TMPRSS4 (11747572_a_at) / Fold change /veh TMPRSS4 (11747572_a_at) / RFU HAMP (11756126_x_at) / Fold change /veh HAMP (11756126_x_at) / RFU RNFT2 (11725882_a_at) / Fold change /veh RNFT2 (11725882_a_at) / RFU NR4A2 (11747474_a_at) / Fold change /veh NR4A2 (11747474_a_at) / RFU ABCC12 (11746883_a_at) / Fold change /veh ABCC12 (11746883_a_at) / RFU TMEM136 (11760407_x_at) / Fold change /veh TMEM136 (11760407_x_at) / RFU CLDN22 /// WWC2 (11732394_at) / Fold change /veh CLDN22 /// WWC2 (11732394_at) / RFU HLA-DPB1 (11760878_x_at) / Fold change /veh HLA-DPB1 (11760878_x_at) / RFU SPINT1 (11716480_a_at) / Fold change /veh SPINT1 (11716480_a_at) / RFU GAP43 (11754022_s_at) / Fold change /veh GAP43 (11754022_s_at) / RFU A4GNT (11735810_at) / Fold change /veh A4GNT (11735810_at) / RFU PRB3 (11715151_x_at) / Fold change /veh PRB3 (11715151_x_at) / RFU TUBB4B (11761932_at) / Fold change /veh TUBB4B (11761932_at) / RFU CAPN14 (11732068_a_at) / Fold change /veh CAPN14 (11732068_a_at) / RFU TMCC2 (11721928_a_at) / Fold change /veh TMCC2 (11721928_a_at) / RFU IRGQ (11745062_a_at) / Fold change /veh IRGQ (11745062_a_at) / RFU FAM174B (11720279_a_at) / Fold change /veh FAM174B (11720279_a_at) / RFU TMPRSS4 (11748680_a_at) / Fold change /veh TMPRSS4 (11748680_a_at) / RFU FAM212B (11763350_a_at) / Fold change /veh FAM212B (11763350_a_at) / RFU PLEKHG5 (11743358_a_at) / Fold change /veh PLEKHG5 (11743358_a_at) / RFU ZSCAN30 (11745921_a_at) / Fold change /veh ZSCAN30 (11745921_a_at) / RFU CMKLR1 (11741424_a_at) / Fold change /veh CMKLR1 (11741424_a_at) / RFU LOC101060620 /// MAPK8IP1 (11723275_at) / Fold change /veh LOC101060620 /// MAPK8IP1 (11723275_at) / RFU SPTSSB (11747773_x_at) / Fold change /veh SPTSSB (11747773_x_at) / RFU PRSS12 (11739890_at) / Fold change /veh PRSS12 (11739890_at) / RFU BIN1 (11741810_x_at) / Fold change /veh BIN1 (11741810_x_at) / RFU WNT11 (11732464_a_at) / Fold change /veh WNT11 (11732464_a_at) / RFU C10orf10 (11716521_a_at) / Fold change /veh C10orf10 (11716521_a_at) / RFU C5orf56 (11738089_at) / Fold change /veh C5orf56 (11738089_at) / RFU CYB561 (11721691_x_at) / Fold change /veh CYB561 (11721691_x_at) / RFU ANKRD19P (11752326_a_at) / Fold change /veh ANKRD19P (11752326_a_at) / RFU OR2T12 /// OR2T33 /// OR2T8 (11738714_s_at) / Fold change /veh OR2T12 /// OR2T33 /// OR2T8 (11738714_s_at) / RFU VCAN (11748164_a_at) / Fold change /veh VCAN (11748164_a_at) / RFU JSRP1 (11732532_at) / Fold change /veh JSRP1 (11732532_at) / RFU KRTAP10-11 (11738290_x_at) / Fold change /veh KRTAP10-11 (11738290_x_at) / RFU MYO3A (11730013_a_at) / Fold change /veh MYO3A (11730013_a_at) / RFU EBF3 (11725865_a_at) / Fold change /veh EBF3 (11725865_a_at) / RFU CAMK2N1 (11719241_x_at) / Fold change /veh CAMK2N1 (11719241_x_at) / RFU C5orf56 (11738088_a_at) / Fold change /veh C5orf56 (11738088_a_at) / RFU OLFML3 (11715873_a_at) / Fold change /veh OLFML3 (11715873_a_at) / RFU LOC100653217 /// NTM (11731650_a_at) / Fold change /veh LOC100653217 /// NTM (11731650_a_at) / RFU MAPK11 (11762145_a_at) / Fold change /veh MAPK11 (11762145_a_at) / RFU FIZ1 (11724087_x_at) / Fold change /veh FIZ1 (11724087_x_at) / RFU OASL (11726364_x_at) / Fold change /veh OASL (11726364_x_at) / RFU SOX15 (11748057_x_at) / Fold change /veh SOX15 (11748057_x_at) / RFU CD79A (11719716_a_at) / Fold change /veh CD79A (11719716_a_at) / RFU HIST1H1D (11736915_at) / Fold change /veh HIST1H1D (11736915_at) / RFU CASKIN2 (11723855_a_at) / Fold change /veh CASKIN2 (11723855_a_at) / RFU LOC730098 (11760151_x_at) / Fold change /veh LOC730098 (11760151_x_at) / RFU OR4N2 (11742367_at) / Fold change /veh OR4N2 (11742367_at) / RFU PRRT2 (11749266_a_at) / Fold change /veh PRRT2 (11749266_a_at) / RFU SNX32 (11753110_a_at) / Fold change /veh SNX32 (11753110_a_at) / RFU CDHR5 (11726645_a_at) / Fold change /veh CDHR5 (11726645_a_at) / RFU RCAN1 (11760418_a_at) / Fold change /veh RCAN1 (11760418_a_at) / RFU FAM167A (11723789_a_at) / Fold change /veh FAM167A (11723789_a_at) / RFU FAM26E (11764081_at) / Fold change /veh FAM26E (11764081_at) / RFU ISYNA1 (11749810_s_at) / Fold change /veh ISYNA1 (11749810_s_at) / RFU ACY1 (11761880_at) / Fold change /veh ACY1 (11761880_at) / RFU 11764098_at / Fold change /veh 11764098_at / RFU SAMD14 (11745864_x_at) / Fold change /veh SAMD14 (11745864_x_at) / RFU NPB (11741838_a_at) / Fold change /veh NPB (11741838_a_at) / RFU TMPRSS6 (11731388_a_at) / Fold change /veh TMPRSS6 (11731388_a_at) / RFU KRTAP10-2 (11738614_at) / Fold change /veh KRTAP10-2 (11738614_at) / RFU ARHGAP8 /// PRR5-ARHGAP8 (11727945_x_at) / Fold change /veh ARHGAP8 /// PRR5-ARHGAP8 (11727945_x_at) / RFU KRTAP5-7 /// NADSYN1 (11734609_at) / Fold change /veh KRTAP5-7 /// NADSYN1 (11734609_at) / RFU RASL12 (11751679_a_at) / Fold change /veh RASL12 (11751679_a_at) / RFU CDKN2B (11736163_a_at) / Fold change /veh CDKN2B (11736163_a_at) / RFU PRF1 (11729649_at) / Fold change /veh PRF1 (11729649_at) / RFU, ZNF638 /// ZNF638-IT1 / Fold change vs veh, ZNF638 /// ZNF638-IT1 / RFU, PANK3 / Fold change vs veh, PANK3 / RFU, SH3YL1 / Fold change vs veh, SH3YL1 / RFU, ZEB2 / Fold change vs veh, ZEB2 / RFU, NRIP1 / Fold change vs veh, NRIP1 / RFU, PTTG1IP / Fold change vs veh, PTTG1IP / RFU, CAPN2 / Fold change vs veh, CAPN2 / RFU, MED14 / Fold change vs veh, MED14 / RFU, SNORA58 / Fold change vs veh, SNORA58 / RFU, C1orf63 / Fold change vs veh, C1orf63 / RFU, LRRFIP1 / Fold change vs veh, LRRFIP1 / RFU, NDUFAF7 / Fold change vs veh, NDUFAF7 / RFU, SLC12A2 / Fold change vs veh, SLC12A2 / RFU, IBTK / Fold change vs veh, IBTK / RFU, ESF1 / Fold change vs veh, ESF1 / Fold change vs veh, TMEM50B / RFU, TAOK1 / Fold change vs veh, TAOK1 / RFU, ACBD3 / Fold change vs veh, ACBD3 / RFU, TMA16 / Fold change vs veh, TMA16 / RFU, RWDD3 / Fold change vs veh, RWDD3 / RFU, BCAT1 / Fold change vs veh, BCAT1 / RFU, EDEM3 / Fold change vs veh, EDEM3 / RFU, TMEM33 / Fold change vs veh, TMEM33 / RFU, WDR75 / Fold change vs veh, WDR75 / RFU, AHCTF1 / Fold change vs veh, AHCTF1 / RFU, TFRC / Fold change vs veh, TFRC / RFU, ZDHHC17 / Fold change vs veh, ZDHHC17 / RFU, NOM1 / Fold change vs veh, NOM1 / RFU, ARL8B / Fold change vs veh, ARL8B / RFU, ZBTB11 / Fold change vs veh, ZBTB11 / RFU, TAMM41 / Fold change vs veh, TAMM41 / RFU, KIAA1704 /// LOC100996395 / Fold change vs veh, KIAA1704 /// LOC100996395 / RFU, ING1 / Fold change vs veh, ING1 / RFU, TRMT61B / Fold change vs veh, TRMT61B / RFU, FUBP3 / Fold change vs veh, FUBP3 / RFU, TP53 / Fold change vs veh, TP53 / RFU, TNKS2 / Fold change vs veh, TNKS2 / RFU, ZFP14 / Fold change vs veh, ZFP14 / RFU, ACTR2 / Fold change vs veh, ACTR2 / RFU, PPP3R1 / Fold change vs veh, PPP3R1 / RFU, PIK3R1 / Fold change vs veh, PIK3R1 / RFU, HNRNPA1 / Fold change vs veh, HNRNPA1 / RFU, RNF170 / Fold change vs veh, RNF170 / RFU, ZNF28 / Fold change vs veh, ZNF28 / RFU, RNGTT / Fold change vs veh, RNGTT / RFU, OGT / Fold change vs veh, OGT / RFU, BRD1 / Fold change vs veh, BRD1 / RFU, MARS / Fold change vs veh, MARS / RFU, ZNF655 / Fold change vs veh, ZNF655 / RFU, FAHD1 / Fold change vs veh, FAHD1 / RFU, BDP1 / Fold change vs veh, BDP1 / RFU, LRRCC1 / Fold change vs veh, LRRCC1 / RFU, ARID1A / Fold change vs veh, ARID1A / RFU, ZNF146 / Fold change vs veh, ZNF146 / RFU, ZNF330 / Fold change vs veh, ZNF330 / RFU, GPN3 / Fold change vs veh, GPN3 / RFU, C9orf123 / Fold change vs veh, C9orf123 / RFU, N4BP2L2 / Fold change vs veh, N4BP2L2 / RFU, ARFIP1 / Fold change vs veh, ARFIP1 / RFU, FAM179B / Fold change vs veh, FAM179B / RFU, BCL10 / Fold change vs veh, BCL10 / RFU, UHRF1BP1L / Fold change vs veh, UHRF1BP1L / RFU, BET1 / Fold change vs veh, BET1 / RFU, CNOT2 / Fold change vs veh, CNOT2 / RFU, ZNF268 / Fold change vs veh, ZNF268 / Fold change vs veh, ZNF507 / RFU, DGCR2 / Fold change vs veh, DGCR2 / RFU, WDSUB1 / Fold change vs veh, WDSUB1 / Fold change vs veh, HSP90B1 /// MIR3652 / RFU, ADSS / Fold change vs veh, ADSS / RFU, GK / Fold change vs veh, GK / RFU, ZNF148 / Fold change vs veh, ZNF148 / RFU, TAF9 / Fold change vs veh, TAF9 / RFU, SLC1A5 / Fold change vs veh, SLC1A5 / RFU, SLMO2 / Fold change vs veh, SLMO2 / RFU, ABCC4 / Fold change vs veh, ABCC4 / RFU, LOC101060439 /// RAP1B / Fold change vs veh, LOC101060439 /// RAP1B / RFU, RFX7 / Fold change vs veh, RFX7 / RFU, GTPBP10 / Fold change vs veh, GTPBP10 / RFU, CNEP1R1 / Fold change vs veh, CNEP1R1 / RFU, BIVM-ERCC5 /// ERCC5 / Fold change vs veh, BIVM-ERCC5 /// ERCC5 / RFU, ILF3 / Fold change vs veh, ILF3 / RFU 11762660_at / Fold change /veh 11762660_at / RFU VCAN (11757783_s_at) / Fold change /veh VCAN (11757783_s_at) / RFU DDX43 (11728927_at) / Fold change /veh DDX43 (11728927_at) / RFU KRT8 (11758188_x_at) / Fold change /veh KRT8 (11758188_x_at) / RFU NKD1 (11759106_at) / Fold change /veh NKD1 (11759106_at) / RFU SRD5A1 (11742802_a_at) / Fold change /veh SRD5A1 (11742802_a_at) / RFU TPSAB1 /// TPSB2 (11721975_s_at) / Fold change /veh TPSAB1 /// TPSB2 (11721975_s_at) / RFU GSTM3 (11746129_a_at) / Fold change /veh GSTM3 (11746129_a_at) / RFU IL23R (11737362_x_at) / Fold change /veh IL23R (11737362_x_at) / RFU TMEM51 (11727254_a_at) / Fold change /veh TMEM51 (11727254_a_at) / RFU PIWIL2 (11732686_x_at) / Fold change /veh PIWIL2 (11732686_x_at) / RFU ORM1 (11744905_x_at) / Fold change /veh ORM1 (11744905_x_at) / RFU CCDC152 (11743942_at) / Fold change /veh CCDC152 (11743942_at) / RFU ECM1 (11717891_a_at) / Fold change /veh ECM1 (11717891_a_at) / RFU IL23R (11748794_a_at) / Fold change /veh IL23R (11748794_a_at) / RFU TNFAIP8L3 (11732012_x_at) / Fold change /veh TNFAIP8L3 (11732012_x_at) / RFU MBOAT4 (11741988_at) / Fold change /veh MBOAT4 (11741988_at) / RFU 11764193_at / Fold change /veh 11764193_at / RFU TMEM53 (11763286_at) / Fold change /veh TMEM53 (11763286_at) / RFU MAGEB2 (11727129_at) / Fold change /veh MAGEB2 (11727129_at) / RFU TMEM200A (11744735_a_at) / Fold change /veh TMEM200A (11744735_a_at) / RFU CCDC152 (11751479_a_at) / Fold change /veh CCDC152 (11751479_a_at) / RFU FAM211A (11726209_a_at) / Fold change /veh FAM211A (11726209_a_at) / RFU RGS16 (11746705_a_at) / Fold change /veh RGS16 (11746705_a_at) / RFU VCAN (11755009_s_at) / Fold change /veh VCAN (11755009_s_at) / RFU RHOB (11743442_s_at) / Fold change /veh RHOB (11743442_s_at) / RFU RGS16 (11720943_a_at) / Fold change /veh RGS16 (11720943_a_at) / RFU RGS16 (11720944_at) / Fold change /veh RGS16 (11720944_at) / RFU, VPS4B / Fold change vs veh, VPS4B / RFU, CREB1 / Fold change vs veh, CREB1 / RFU, DNAJC13 / Fold change vs veh, DNAJC13 / RFU, GNAQ / Fold change vs veh, GNAQ / RFU, CDK5R1 / Fold change vs veh, CDK5R1 / RFU, ZRANB3 / Fold change vs veh, ZRANB3 / RFU, CUL4A / Fold change vs veh, CUL4A / RFU, CCNY / Fold change vs veh, CCNY / RFU, UFL1 / Fold change vs veh, UFL1 / RFU, COG3 / Fold change vs veh, COG3 / RFU, DIAPH2 / Fold change vs veh, DIAPH2 / RFU, SKA2 / Fold change vs veh, SKA2 / RFU, AFF3 / Fold change vs veh, AFF3 / RFU, LMF1 / Fold change vs veh, LMF1 / RFU, IPO11 / Fold change vs veh, IPO11 / RFU, DFFB / Fold change vs veh, DFFB / RFU, FOXP1 / Fold change vs veh, FOXP1 / RFU, CARD8 / Fold change vs veh, CARD8 / RFU, STRN3 / Fold change vs veh, STRN3 / RFU, ADK / Fold change vs veh, ADK / RFU, RASSF2 / Fold change vs veh, RASSF2 / RFU, WIPF1 / Fold change vs veh, WIPF1 / RFU, LARP1B / Fold change vs veh, LARP1B / RFU, RASA1 / Fold change vs veh, RASA1 / RFU, RB1 / Fold change vs veh, RB1 / RFU, PPFIA1 / Fold change vs veh, PPFIA1 / RFU, MAT2A / Fold change vs veh, MAT2A / RFU, CCT5 / Fold change vs veh, CCT5 / RFU, WDR92 / Fold change vs veh, WDR92 / RFU, CUX1 / Fold change vs veh, CUX1 / RFU, TTC7A / Fold change vs veh, TTC7A / RFU, TMEM135 / Fold change vs veh, TMEM135 / RFU, DEPTOR / Fold change vs veh, DEPTOR / RFU, CPM / Fold change vs veh, CPM / RFU, DNAJB6 / Fold change vs veh, DNAJB6 / RFU, CACNA2D3 / Fold change vs veh, CACNA2D3 / RFU, DTX4 / Fold change vs veh, DTX4 / RFU, TFCP2 / Fold change vs veh, TFCP2 / RFU, GMCL1 /// GMCL1P1 / Fold change vs veh, GMCL1 /// GMCL1P1 / RFU, AEBP2 / Fold change vs veh, AEBP2 / RFU, SNHG1 /// SNORD22 /// SNORD25 /// SNORD26 /// SNORD27 /// SNORD28 /// SNORD29 /// SNORD31 / Fold change vs veh, SNHG1 /// SNORD22 /// SNORD25 /// SNORD26 /// SNORD27 /// SNORD28 /// SNORD29 /// SNORD31 / Fold change (Aza/veh), C12orf56 (ProbeSet 11735607_a_at) / Fold change (ACY-1035/veh), C12orf56 (ProbeSet 11735607_a_at) / Fold change (Aza/veh), FGFR1OP (ProbeSet 11751329_s_at) / Fold change (ACY-1035/veh), FGFR1OP (ProbeSet 11751329_s_at) / Fold change (Aza/veh), VPS36 (ProbeSet 11739960_a_at) / Fold change (ACY-1035/veh), VPS36 (ProbeSet 11739960_a_at) / RFU SYPL1 (11715823_x_at) / Fold change /veh SYPL1 (11715823_x_at) / RFU IGFBP7 (11715501_s_at) / Fold change /veh IGFBP7 (11715501_s_at) / RFU REEP3 (11722064_at) / Fold change /veh REEP3 (11722064_at) / RFU IGLL1 (11728026_x_at) / Fold change /veh IGLL1 (11728026_x_at): dose or concentration left out as unconfirmed
Conditions: MV-4-11 cells, 48 hours

Nc1ccc(-c2cccs2)cc1NC(=O)c1ccc2c(c1)cc(C1CC1)n2CCN1CCOCC1 [ACY-1035]
Fold change /veh FAM167A (11723789_a_at): 1.14

— article PMC5218480 (PLoS ONE, 2017)
